From patent US9597407B2, “Targeted antimicrobial moieties” (C3 Jian, Inc., priority 2009, dated 2017)
In brackets after ≈: the same amount, converted by molar mass. Bridge positions count the residues as written; N and C are the ends. Square brackets hold non-standard residues; d marks the D form. Peptide text beside a SMILES is read from it. I, II: the chains in the order shown. Aoc = NCCCCCCCC(=O)O

Legend:
[1] = system: S. mutans; experiment: Microbial population shift assay, mixed planktonic culture; assay type: cell-based, Streptococcus mutans; conditions: 10 μM peptide, 24 h, detection limit 200 cfu/mL
Method: (§1) Peptide (10 μM) or mock-treatment (1×PBS) was then added and samples were incubated at 37° C. for 24 h under anaerobic conditions (80% N2, 15% CO2, 5% H2). […] Plates were then incubated 37° C. under aerobic conditions (TH plates were incubated anaerobically) and colonies counted after 24 h to determine survivors. […] Gram stains and direct microscopic observation (from select isolated colonies) were undertaken to confirm species identity (data not shown). The detection limit of the assay was 200 cfu/mL.
(§2) We hypothesized that potential MH-STAMP dual-functionality could affect a particular set of bacteria within a mixed population, thereby promoting the outgrowth of non-targeted organisms and “shifting” the constituent makeup. To examine this possibility, defined mixed populations of planktonic cells were treated continuously and the make-up of the community examined after 24 h.

[2] = system: S. mutans; experiment: Post-antibiotic effect assay, monoculture growth after 10 min treatment; assay type: cell-based, Streptococcus mutans; conditions: peptide 10 min, then fresh medium
Method: The activity and selectivity of MH-STAMPs after a 10 min incubation was determined by growth retardation experiments against targeted and untargeted bacteria in monocultures, as described previously (Id.). Cells from overnight cultures were diluted to ˜5×10^6 cfu/mL in MH (or TH with 1% sucrose for S. mutans), normalized by OD600 0.05-0.1 and seeded to 96-well plates. Cultures were then grown under the appropriate conditions for 2 h (3 h for S. mutans) prior to the addition of peptides for 10 min. Plates were then centrifuged at 3000×g for 5 min, the supernatants discarded, fresh medium returned (MH or TH without sucrose for S. mutans), and incubation resumed. Bacterial growth after treatment was then monitored over time by OD600.
MH-STAMP antimicrobial kinetics was ascertained utilizing a variation of the classical post-antibiotic effect assay, which measures the ability of an agent to affect an organism's growth after a short exposure period. Monocultures of MH-STAMP-targeted and untargeted organisms were exposed to M8(KH)-20, M8(BL)-20, BL(KH)-20, or unmodified BD2.20, then allowed to recover. […] Furthermore, replacement of the targeting region with a non-binding peptide abolishes specific activity.

[3] = system: S. mutans; assay type: cell-based, Streptococcus mutans; conditions: average MIC with standard deviation, n = 10 assays
Method: (§3) The active AMPs, STAMPs and the like can be identified and/or validated using an in vitro screening assay. Indeed, in many instances the AMPs and/or STAMPS described herein will be used in vitro as preservatives, topical antimicrobial treatments, and the like.
(§4) Typically, the in vitro antimicrobial activity of antimicrobial agents is tested using standard NCCLS bacterial inhibition assays, or MIC tests (see, National Committee on Clinical Laboratory Standards “Performance Standards for Antimicrobial Susceptibility Testing,” NCCLS Document M100-S5 Vol. 14, No. 16, December 1994; “Methods for dilution antimicrobial susceptibility test for bacteria that grow aerobically-Third Edition,” Approved Standard M7-A3, National Committee for Clinical Standards, Villanova, Pa.).
(§5) Briefly, ˜1×10^5 cfu/mL bacteria were diluted in TH (S. mutans), or Mueller-Hinton (MH) broth (all other organisms) and distributed to 96-well plates. Serially-diluted (2-fold) peptides were then added and the plates incubated at 37° C. for 18-24 h. […] All experiments were conducted 10 times.

[4] = system: P. aeruginosa; experiment: Microbial population shift assay, mixed planktonic culture; assay type: cell-based, Pseudomonas aeruginosa; conditions: 10 μM peptide, 24 h, detection limit 200 cfu/mL
Method: as §1, §2

[5] = system: Staphylococcus aureus Newmann; assay type: cell-based; conditions: S. aureus; average MIC with standard deviation, n = 10 assays
Method: (§6) Streptococcus mutans JM11 (spectinomycin resistant, UA140 background) was grown in Todd-Hewitt (TH) broth under anaerobic conditions (80% N2, 15% CO2, 5% H2) at 37° C. Merritt et al. (2005) J Microbiol Meth., 61: 161-170. All bacteria were grown overnight to an OD600 of 0.8-1.0 prior to appropriate dilution and antimicrobial testing.
as §5

[6] = system: Klebsiella pneumoniae KAY 2026; assay type: cell-based; conditions: K. pneumoniae; average MIC with standard deviation, n = 10 assays
Method: as §6, §5

[7] = system: E. coli; assay type: cell-based, Escherichia coli; conditions: average MIC with standard deviation, n = 10 assays
Method: as §3, §4, §5

[8] = system: P. aeruginosa; conditions: average MIC with standard deviation, n = 10 assays
Method: (§7) The active AMPs, STAMPs and the like can be identified and/or validated using an in vitro screening assay.
(§8) Peptides were evaluated for basic antimicrobial activity by broth microdilution, as described previously (Eckert et al. (2006) Antimicrob Agents Chemother., 50: 3651-3657; Eckert et al. (2006) Antimicrob Agents Chemother., 50: 1480-1488). Briefly, ˜1×10^5 cfu/mL bacteria were diluted in TH (S. mutans), or Mueller-Hinton (MH) broth (all other organisms) and distributed to 96-well plates. Serially-diluted (2-fold) peptides were then added and the plates incubated at 37° C. for 18-24 h. […] All experiments were conducted 10 times.

[9] = system: S. epidermidis; conditions: average MIC with standard deviation, n = 10 assays
Method: as §7, §8

[10] = system: E. coli; experiment: Microbial population shift assay, mixed planktonic culture; assay type: cell-based, Escherichia coli; conditions: 10 μM peptide, 24 h, detection limit 200 cfu/mL
Method: as §1, §2

[11] = system: S. epidermidis; experiment: as above; assay type: cell-based, Staphylococcus epidermidis; conditions: 10 μM peptide, 24 h, detection limit 200 cfu/mL
Method: as §1, §2

[12] = system: BHK-21 fibroblasts; experiment: Cytotoxicity, Promega CellTiterGlo assay; assay type: cell-based, hamster; conditions: BHK cells
Method: Streptococcus oralis ATCC 10557, Streptococcus gordonii (Challis), Streptococcus sanguinis (NY101), Streptococcus mitis ATCC 903, Streptococcus salivarius ATCC 13419 and S. mutans wild-type UA140 and JM11 (spectinomycin-resistant) strains were grown in Todd-Hewitt (TH) broth 37° C. in an anaerobic atmosphere of 80% N2, 10% CO2, and 10% H2. BHK-21 (ATCC CRL-10) fibroblasts were propagated in DMEM with 10% FBS, 1 mM sodium pyruvate, 100 units/mL penicillin G, and 100 μg/mL streptomycin at 37° C. with 5% CO2. Cells were detached with 0.25% trypsin and subcultured as recommended by the supplier.
The effect of RB and C16-RB on human fibroblasts was ascertained by utilizing the Promega CellTiterGlo assay, as described by the manufacturer. Briefly, fibroblasts were grown to confluence, detached, and seeded to ˜5,000 cells per well in a 96-well opaque walled, clear bottom 96-well plate (Nunc International). For long-term dark toxicity, cells were allowed to attach to for 18 h before the culture medium was replaced with medium plus serially-diluted RB or C16-RB (200 μM to 390 nM) or medium alone. After 18-24 h, equal volume Cell Titer Glo reagent was added to each well and mixed. Luciferace activity was then quantified to measure cell viability (Varian Fluorometer in Biolumenescence mode). […] After exposure, cultures were disrupted with Cell Titer Glo and luciferase activity quantitated as above.

[13] = system: S. mutans JM11 and non-cariogenic oral streptococci in mixed biofilms; experiment: Selective photodynamic assay against multispecies biofilms; assay type: cell-based, Streptococcus mutans; conditions: mixed biofilm, blue light, plus potassium gluconate
Method: To gauge C16-RB selectivity for S. mutans, similar assays were conducted against multispecies biofilms. Mixed biofilms were seeded by diluting (1:5000) a mixture of equal parts S. oralis, S. gordonii, S. mitis, S. sanguinis, S. salivarius, and S. mutans JM11 (made from overnight cultures) into TH with 1% sucrose, 1% glucose, and 1% mannose. Biofilms were incubated and treated as described above with the addition of vitamin C or potassium gluconate. After the addition of agent and 5 min incubation, biofilms were washed 1× with 1×PBS prior to light exposure. After PDT and biofilm disruption, survivors were plated on TH, and TH supplemented with 800 μg/mL spectinomycin, which allowed for quantitation of surviving total oral streptococci and surviving S. mutans, respectively.
C16-RB was next evaluated for selectivity in mixed cultures containing S. mutans and non-cariogenic oral streptococci that compete for the same niche on the tooth surface. We utilized mixed biofilms of S. mutans transformed with spectinomycin resistance (strain JM11, Merritt, et al., 2005), plus S. oxalis, S. gordonii, S. mitis, S. sanguinis, and S. salivarius. The mixed cultures were grown 24 and then treated with RB or C16-RB as indicated, plus potassium gluconate to minimize killing of untargeted bacteria by reducing the superoxide-producing activity of the free C16-RB not bound to S. mutans. […]

[14] = system: S. mutans UA140 biofilms; experiment: Photodynamic antimicrobial assay against single-species biofilms; assay type: cell-based, Streptococcus mutans; conditions: 5 μM, no light
Method: To evaluate C16-RB against monoculture biofilms, S. mutans UA140 was grown overnight in TH prior to inoculation for biofilm formation. For biofilms, 1:5000 dilution of overnight culture was made into TH with 1% sucrose in 2 mL centrifuge tubes (200 μL volume) and grown 24 h under anaerobic conditions. After incubation, biofilms were treated for 5 min with 5 or 25 μM C16-RB or 5 μM RB in 1×PBS, or PBS alone, followed by removal of supernatant and exposure to 5 min blue light (emission 400-550 nm, power 400 mW/cm^2) from an Astralis 7 (Ivoclar Vivodent, Austria) handheld LED commonly used as a dental curing light. The light source was suspended 4 cm from the tube bottom (even with the mouth of the tube). A duplicate set of samples were left covered to serve as dark controls. After treatment, biofilms were mechanically disrupted and plated to determine cfu/mL.
After synthesis, the basic photosensitization potential of C16-RB was assessed by challenging mature single-species S. mutans biofilms (grown 24 h) with C16-RB or unmodified RB, followed by blue emission from a dental curing light.

| Compound | surviving S. mutans cfu/mL [1] | S. mutans growth (OD600) after treatment [2] | MIC [3] | surviving P. aeruginosa cfu/mL [4] | MIC [5] | MIC [6] | MIC [7] | MIC [8] | MIC [9] | surviving E. coli cfu/mL [10] | surviving S. epidermidis cfu/mL [11] | IC50 ([12]; 5 min dark) | photo-associated (light-dependent) toxicity ([12]; blue light exposure) | ratio of surviving S. mutans:non-cariogenic streptococci cfu [13] | decrease in cfu/mL, dark controls [14] |
| --- | --- | --- | --- | --- | --- | --- | --- | --- | --- | --- | --- | --- | --- | --- | --- |
| CC[C@H](C)[C@H](NC(=O)[C@H](Cc1ccccc1)NC(=O)CCCCCCCNC(=O)[C@H](CCCCNC(=O)CNC(=O)CNC(=O)CNC(=O)[C@H](C)NC(=O)[C@H](CCC(=O)O)NC(=O)[C@H](CC(N)=O)NC(=O)[C@H](C)NC(=O)[C@H](C)NC(=O)[C@@H](N)CC(=O)O)NC(=O)CNC(=O)CNC(=O)CNC(=O)[C@H](CCCNC(=N)N)NC(=O)[C@H](CC(N)=O)NC(=O)[C@H](CC(C)C)NC(=O)[C@H](Cc1ccccc1)NC(=O)[C@H](CCCNC(=N)N)NC(=O)[C@H](Cc1ccccc1)NC(=O)[C@H](Cc1ccccc1)NC(=O)[C@@H](NC(C)=O)[C@@H](C)O)C(=O)N[C@@H](CCCNC(=N)N)C(=O)N[C@@H](CCCCN)C(=O)N[C@@H](Cc1ccccc1)C(=O)N[C@@H](CC(C)C)C(=O)N[C@@H](CCCCN)C(=O)N[C@@H](CCCCN)C(=O)N[C@@H](Cc1c[nH]c2ccccc12)C(=O)N[C@@H](CC(C)C)C(=O)N[C@@H](CC(C)C)C(N)=O [M8(BL)-20] (I: Ac-TFFRFLNRGGGK[Aoc]FIRKFLKKWLL-NH2 / II: H-DAANEAGGG; amide I:12-II:C) | greatly reduced compared to input cfu/mL | effectively retarded | 6.25 µM (≈ 23.7 µg/mL) | not affected or affected to a lesser extent | 18.05 ± 6.58 µM (≈ 68.6 µg/mL) | 6.88 ± 1.98 µM (≈ 26.1 µg/mL) | 5.97 ± 0.94 µM (≈ 22.7 µg/mL) | 50 µM (≈ 190 µg/mL) | 6.25 µM (≈ 23.7 µg/mL) | not affected or affected to a lesser extent | not affected or affected to a lesser extent | – | – | – | – |
| O=C1OC2(c3cc(I)c(O)c(I)c3Oc3c2cc(I)c(O)c3I)c2c(Cl)c(Cl)c(Cl)c(Cl)c21 [RB, rose bengal] | – | – | – | – | – | – | – | – | – | – | – | > 100 µM | light-dependent toxicity was observed | ~1 | appreciable decreases in cfu/mL were not observed |
